This assay has as its target BIR3 domain of human cIAP1 (amino acids 256 to 363; cIAP1 BIR3) (Homo sapiens (Human), UniProt Q13490). The experiment in a line: cIAP1 BIR3 binding assay (DELFIA). The protocol:
XIAP BIR3 and cIAP1 BIR3 Binding Assays (DELFIA)
Peptide […]-Lys(Biotin), representing the N-terminus of mature human SMAC (SMAC peptide), was used as interaction partner in the protein-peptide interaction assay.
BIR3 domains (10 nM) were incubated with SMAC peptide (10 nM) in assay buffer (50 mM Tris, 120 mM NaCl, 0.1% BSA, 1 mM DTT, 0.05% TritonX100) for one hour at room temperature in the presence of inhibitory compounds. The assay mixture was transferred to a streptavidin coated plate and incubated for one hour at room temperature to allow binding of the biotinylated peptide and associated BIR3 domains to the plate. After several washing steps Eu labeled anti-GST antibody (e.g. Perkin Elmer DELFIA Eu-N1-antiGST AD0250) was added to detect BIR3 domain-SMAC peptide interactions m according to Perkin Elmer's instructions. […] Time resolved Europium fluoresecence was measured in a Wallac Victor using Standard assay settings.
DELFIA assay results were plotted against compound concentrations and Software GraphPad Prizm was used to calculate half maximal inhibitory concentrations (IC50 values).

[1] abbreviates: BIR3 domain 10 nM, SMAC peptide 10 nM, values represent the (S)-isomers, * = racemic compound, read-out: cIAP1 BIR-3 IC50.

Molecules are shown by their SMILES. Read-outs that look alike come from different tables or passages of the source.

One may read the IC50 as the midpoint of a concentration-inhibition curve.

BIR3 domain of human cIAP1 (amino acids 256 to 363; cIAP1 BIR3), sequence (Q13490 256-363): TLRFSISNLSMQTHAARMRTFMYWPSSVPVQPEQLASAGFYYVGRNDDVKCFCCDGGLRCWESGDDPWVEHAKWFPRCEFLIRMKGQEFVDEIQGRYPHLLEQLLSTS

In the case of `CNC(C)C(=O)Nc1cc(-c2ccnc3cc(F)cc(F)c23)cc(NC(=O)c2ccc(Cl)cn2)n1` (centres unmarked) [Example 23, 5-chloro-N-[4-(5,7-difluoroquinolin-4-yl)-6-[2-(methylamino)propanamido]-pyridin-2-yl]pyridine-2-carboxamide], under setting [1], the half-maximal inhibitory concentration (IC50) stood at 8 nM. With `CNC(C)C(=O)Nc1cc(-c2c(OC)ccc3nccc(C)c23)cc(NC(=O)c2ccc(Cl)cn2)n1` (centres unmarked) [Example 24, 5-chloro-N-[4-(6-methoxy-4-methylquinolin-5-yl)-6-[2-(methylamino)propanamido]-pyridin-2-yl]pyridine-2-carboxamide], the IC50 under setting [1] worked out at 1 nM. `CNC(C)C(=O)Nc1cc(-c2c(OC)ccc3cc(C#N)ccc23)cc(NC(=O)c2ccc(Cl)cn2)n1` (centres unmarked) [Example 25, 5-chloro-N-[4-(6-cyano-2-methoxynaphihalen-1-yl)-6-[2-(methylamino)propanamido]-pyridin-2-yl]pyridine-2-carboxamide] registered an IC50 of 47 nM. Consider `CNC(C)C(=O)Nc1cc(-c2c(C)nc(C)c3c(=O)n(C)n(C)c23)cc(NC(=O)c2ccc(Cl)cn2)n1` (centres unmarked) [Example 26, 5-chloro-N-{6-[2-(methylamino)propanamido]-4-{1,2,4,6-tetramethyl-3-oxo-1H,2H,3H-pyrazolo[4,3-c]pyridin-7-yl}pyridin-2-yl}pyridine-2-carboxamide], for which the IC50 under setting [1] amounted to 1 nM.

With `CNC(C)C(=O)Nc1cc(-c2c(Cl)c(C)nc3cc(Cl)cc(Cl)c23)cc(NC(=O)c2ccc(Cl)cn2)n1` (centres unmarked) [Example 27, 5-chloro-N-{6-[2-(methylamino)propanamido]-4-(3,5,7-trichloro-2-methylquinolin-4-yl)pyridin-2-yl}pyridine-2-carboxamide], the IC50 under setting [1] came to 18 nM. For `CNC(C)C(=O)Nc1cc(-c2c(C)ccc3ncccc23)cc(NC(=O)c2cc3c(cn2)COC3)n1` (centres unmarked) [Example 28, N-{6-[2-(methylamino)propanamido]-4-(6-methylquinolin-5-yl)pyridin-2-yl}-1H,3H-furo[3,4-c]pyridine-6-carboxamide], the IC50 under setting [1] was determined as 31 nM. As for `CNC(C)C(=O)Nc1cc(-c2c(C)ccc3ncccc23)cc(NC(=O)c2ccc(C)cn2)n1` (centres unmarked) [Example 29, 5-methyl-N-{6-[2-(methylamino)propanamido]-4-(6-methylquinolin-5-yl)pyridin-2-yl}pyridine-2-carboxamide], under setting [1], the IC50 worked out at 28 nM.

Regarding `CNC(C)C(=O)Nc1cc(-c2c(C)ccc3ncccc23)cc(NC(=O)c2ccc(C#N)cn2)n1` (centres unmarked) [Example 30, 5-cyano-N-{6-[2-(methylamino)propanamido]-4-(6-methylquinolin-5-yl)pyridin-2-yl}pyridine-2-carboxamide], the IC50 under setting [1] amounted to 36 nM. Same read-out and setting: as for `CNC(C)C(=O)Nc1cc(-c2c(C)ccc3ncccc23)cc(NC(=O)c2ncc3ccccc3n2)n1` (centres unmarked) [Example 31, N-{6-[2-(methylamino)propanamido]-4-(6-methylquinolin-5-yl)pyridin-2-yl}quinazoline-2-carboxamide], the figure is 52 nM; as for `CNC(C)C(=O)Nc1cc(-c2c(C)ccc3ncccc23)cc(NC(=O)c2ccc(F)cn2)n1` (centres unmarked) [Example 32, 5-fluoro-N-{6-[2-(methylamino)propanamido]-4-(6-methylquinolin-5-yl)pyridin-2-yl}pyridine-2-carboxamide], 53 nM. With `CNC(C)C(=O)Nc1cc(-c2c(C)ccc3ncccc23)cc(NC(=O)c2ccc(OC)cn2)n1` (centres unmarked) [Example 33, 5-methoxy-N-{6-[2-(methylamino)propanamido]-4-(6-methylquinolin-5-yl)pyridin-2-yl}pyridine-2-carboxamide], the IC50 under setting [1] was 59 nM. In the case of `CNC(C)C(=O)Nc1cc(-c2c(C)ccc3ncccc23)cc(NC(=O)c2cnc(C)cn2)n1` (centres unmarked) [Example 34, 5-methyl-N-{6-[2-(methylamino)propanamido]-4-(6-methylquinolin-5-yl)pyridin-2-yl}pyrazine-2-carboxamide], the IC50 under setting [1] stood at 104 nM. Same read-out and setting: then `CNC(C)C(=O)Nc1cc(-c2c(C)ccc3ncccc23)cc(NC(=O)c2cc3ccccc3cn2)n1` (centres unmarked) [Example 35, N-{6-[2-(methylamino)propanamido]-4-(6-methylquinolin-5-yl)pyridin-2-yl}isoquinoline-3-carboxamide], with 132 nM. `CNC(C)C(=O)Nc1cc(-c2c(C)ccc3ncccc23)cc(NC(=O)c2ccc3ccccc3n2)n1` (centres unmarked) [Example 36, N-{6-[2-(methylamino)propanamido]-4-(6-methylquinolin-5-yl)pyridin-2-yl}quinoline-2-carboxamide]: under setting [1], the 50% inhibitory concentration (IC50) amounted to 170 nM. In the case of `CNC(C)C(=O)Nc1cc(-c2c(C)ccc3ncccc23)cc(NC(=O)c2ccncn2)n1` (centres unmarked) [Example 37, N-{6-[2-(methylamino)propanamido]-4-(6-methylquinolin-5-yl)pyridin-2-yl)pyrimidine-4-carboxamide], under setting [1], the IC50 was determined as 428 nM. Turning to `CNC(C)C(=O)Nc1cc(-c2c(C)ccc3ncccc23)cc(NC(=O)c2cc3ccccc3o2)n1` (centres unmarked) [Example 38, N-{6-[2-(methylamino)propanamido]-4-(6-methylquinolin-5-yl)pyridin-2-yl)-1-benzofuran-2-carboxamide], under setting [1], the IC50 turned out to be 514 nM. Regarding `CNC(C)C(=O)Nc1cc(-c2c(C)ccc3ncccc23)cc(NC(=O)c2ccccn2)n1` (centres unmarked) [Example 39, N-{6-[2-(methylamino)propanamido]-4-(6-methylquinolin-5-yl)pyridin-2-yl}pyridine-2-carboxamide], the IC50 under setting [1] is 553 nM. `CNC(C)C(=O)Nc1cc(-c2c(C)ccc3ncccc23)cc(NC(=O)c2cccc(C)n2)n1` (centres unmarked) [Example 40, 6-methyl-N-{6-[2-(methylamino)propanamido]-4-(6-methylquinolin-5-yl)pyridin-2-yl}pyridine-2-carboxamide]: the IC50 under setting [1] was found to be 598 nM. `CNC(C)C(=O)Nc1cc(-c2c(C)ccc3ncccc23)cc(NC(=O)c2ccn(C)n2)n1` (centres unmarked) [Example 41, 1-methyl-N-{6-[2-(methylamino)propanamido]-4-(6-methylquinolin-5-yl)pyridin-2-yl}-1H-pyrazole-3-carboxamide]: the IC50 under setting [1] amounted to 703 nM. Same read-out and setting: then `CNC(C)C(=O)Nc1cc(-c2c(C)ccc3ncccc23)cc(NC(=O)c2cc(Cl)ccn2)n1` (centres unmarked) [Example 42, 4-chloro-N-{6-[2-(methylamino)propanamido]-4-(6-methylquinolin-5-yl)pyridin-2-yl}pyridine-2-carboxamide], with 1190 nM; and `CNC(C)C(=O)Nc1cc(-c2c(C)ccc3ncccc23)cc(NC(=O)c2cccnn2)n1` (centres unmarked) [Example 43, N-{6-[2-(methylamino)propanamido]-4-(6-methylquinolin-5-yl)pyridin-2-yl}pyridazine-3-carboxamide], with 2600 nM. Take `CNC(C)C(=O)Nc1cc(-c2c(C)ccc3ncccc23)cc(NC(=O)c2ccc3cnccc3c2)n1` (centres unmarked) [Example 44, N-{6-[2-(methylamino)propanamido]-4-(6-methylquinolin-5-yl)pyridin-2-yl}isoquinoline-6-carboxamide]: the IC50 under setting [1] came to 3190 nM.

Regarding `CNC(C)C(=O)Nc1cc(-c2c(C)ccc3ncccc23)cc(NC(=O)c2cn(C)cn2)n1` (centres unmarked) [Example 45, 1-methyl-N-{6-[2-(methylamino)propanamido]-4-(6-methylquinolin-5-yl)pyridin-2-yl}-1H-imidazole-4-carboxamide], the half-inhibitory concentration (IC50) under setting [1] came to 4940 nM.

The record behind these values is patent publication US9249151B2, “Bis-amido pyridines” (Boehringer Ingelheim International GmbH, priority 2013, dated 2016).
